In patent US7998978B2 (Pfizer Inc., priority 2006, dated 2011):

What follows are compounds tested against T1, JNK1α1 (Homo sapiens, UniProt P45983) (assay: Coupled spectrophotometric (PK/LDH) JNK1α1 assay: % inhibition and Ki determination). Conditions: JNK-1.
T1 construct: catalytic domain containing amino acids 1-364 and N-terminal hexahistidine tag; hexahistidine (His6) (N); made in house; host or cells: E. coli BL21 (DE3)
Format: biochemical
Method: % Inhibition and Ki Determination
A coupled spectrophotometric assay, coupling JNK1α1 activity to the oxidation of β-NADH to NAD+ through the action of pyruvate kinase (PK) and lactic dehydrogenase (LDH), was used to determine the potency (percent inhibition at 1 or 10 μM or Ki) of compounds against JNK1α1 (Genbank Accession Number: L26318). […] The reaction was monitored by following the decrease in absorbance at 340 nm. The initial reaction rate was determined by the slope of the change in absorbance. To calculate percent inhibition the rate of the reaction in the presence of 1 or 10 μM compound was compared to the rate of the reaction with only DMSO multiplied by 100 percent. Note, the background rate of the above reaction in the presence of 10 μM PHA-00738186 was subtracted from all rates. […] Y=(−X+Eo−(Ki*(1+A/Km))+((X−Eo+(Ki*(1+A/Km)))^2+4*Eo*(Ki*(1+A/Km)))^0.5)*(Vm*A/(Km+A)/(2*Eo)) Formula: • Parameters: Eo, Ki, A, Km, Vo • Y is initial reaction velocity; • X is inhibitor concentration; • A is [ATP]; • Ki is inhibition constant; • Vm is Vmax; • Eo is total (initial) enzyme concentration; • Km is ATP Km;
The compounds were prepared in 100% DMSO at a 40× concentration. For percent inhibition experiments this would be 400 or 40 μM for 10 and 1 μM final concentration, respectively. For the Ki determination 3× serial dilutions were made starting at 4 mM (100 μM at 1×) in DMSO. A total of 11 concentrations were used for the analysis. The compounds were added to the reaction plate first. Next, a solution containing the HEPES, MgCl2, DTT, peptide substrate, NADH, PEP, PK/LDH enzyme, and JNK1α1—364nHis enzyme was added to the assay plate. The plate was incubated at room temperature for 15 minutes. Then the plate was warmed to 30° C. for 5 minutes. The reaction was initiated with the addition of ATP. The reaction was run in a plate reader at 30° C. for 20 minutes with absorbance readings made about every 10 seconds.
The column with “#” heading refers to compound number as exemplified in the Examples section. The column with “Ki” heading refers to Ki (in nM). The column with “% Inhibition” heading refers to percent inhibition of JNK-1 at 1 μM or 10 μM (in %) unless otherwise stated. ND refers to no data was taken.

T1 sequence (P45983 1-364): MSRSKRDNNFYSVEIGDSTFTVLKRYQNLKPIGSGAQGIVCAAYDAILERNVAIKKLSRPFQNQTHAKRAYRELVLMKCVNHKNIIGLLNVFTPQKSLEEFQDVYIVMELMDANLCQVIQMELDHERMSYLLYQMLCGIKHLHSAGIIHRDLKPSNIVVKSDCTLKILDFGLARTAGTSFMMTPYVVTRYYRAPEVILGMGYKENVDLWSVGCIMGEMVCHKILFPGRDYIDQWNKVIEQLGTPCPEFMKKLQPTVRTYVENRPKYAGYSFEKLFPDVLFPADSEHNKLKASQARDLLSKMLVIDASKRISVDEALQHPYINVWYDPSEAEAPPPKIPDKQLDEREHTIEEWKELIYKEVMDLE

| Structure (SMILES) | Ki |
| --- | --- |
| O=C(N[C@@H]1CCC[C@H]1O)c1cccc2cnc(N[C@H]3CC[C@H](O)CC3)nc12 (relative stereo) [Example 136, 2-[(trans-4-hydroxycyclohexyl)amino]-N-[(trans)-2-hydroxycyclopentyl]quinazoline-8-carboxamide] | 0.257 µM |
| CS(=O)(=O)N[C@H]1CC[C@H](Nc2ncc3cccc(C(=O)N[C@@H]4CCC[C@H]4O)c3n2)CC1 (relative stereo) [Example 137, N-[(trans)-2-hydroxycyclopentyl]-2-({trans-4-[(methylsulfonyl)amino]cyclohexyl}amino)quinazoline-8-carboxamide] | 0.263 µM |
| CC(=O)N[C@H]1CC[C@H](Nc2ncc3cccc(C(=O)N[C@@H]4CCC[C@H]4O)c3n2)CC1 (relative stereo) [Example 138, 2-{[trans-4-(acetylamino)cyclohexyl]amino}-N-[(trans)-2-hydroxycyclopentyl]quinazoline-8-carboxamide] | 0.95 µM |
| CC(=O)N[C@H]1CC[C@H](Nc2ncc3cccc(C(=O)N[C@@H]4COC[C@H]4O)c3n2)CC1 (relative stereo) [Example 140, 2-{[trans-4-(acetylamino)cyclohexyl]amino}-N-[(trans)-4-hydroxytetrahydrofuran-3-yl]quinazoline-8-carboxamide] | 0.052 µM |
| CN([C@H]1CC[C@H](Nc2ncc3cccc(C(=O)N[C@@H]4CCC[C@H]4O)c3n2)CC1)S(C)(=O)=O (relative stereo) [Example 142, N-[(trans)-2-hydroxycyclopentyl]-2-({trans-4-[methyl(methylsulfonyl)amino]cyclohexyl}amino)quinazoline-8-carboxamide] | 0.226 µM |
| COc1ccc(CC(=O)Nc2cc3cc(-c4cn[nH]c4)ccc3cn2)cc1 [Example 1, 2-(4-methoxyphenyl)-N-[6-(1H-pyrazol-4-yl)isoquinolin-3-yl]acetamide] | 0.076 µM |
| COc1ccc2[nH]c(C)c(CC(=O)Nc3cc4cc(-c5cn[nH]c5)ccc4cn3)c2c1 [Example 2, 2-(5-methoxy-2-methyl-1H-indol-3-yl)-N-[6-(1H-pyrazol-4-yl)isoquinolin-3-yl]acetamide] | 0.077 µM |
| O=C(Cc1ccc2ccccc2c1)Nc1cc2cc(-c3cn[nH]c3)ccc2cn1 [Example 5, 2-(2-naphthyl)-N-[6-(1H-pyrazol-4-yl)isoquinolin-3-yl]acetamide] | 0.079 µM |
| CC(C(=O)Nc1cc2cc(-c3cn[nH]c3)ccc2cn1)c1ccccc1 (stereo not shown) [Example 8, 2-phenyl-N-[6-(1H-pyrazol-4-yl)isoquinolin-3-yl]propanamide] | > 0.05 µM |
| CC(=O)OCC(C)(C)CC(=O)Nc1cc2cc(-c3cn[nH]c3)ccc2cn1 [Example 10, 2,2-dimethyl-4-oxo-4-{[6-(1H-pyrazol-4-yl)isoquinolin-3-yl]amino)butyl acetate] | 0.042 µM |
| O=C(Nc1cc2cc(-c3cn[nH]c3)ccc2cn1)C1NCc2ccccc21 (stereo not shown) [Example 14, N-[6-(1H-pyrazol-4-yl)isoquinolin-3-yl]isoindoline-1-carboxamide] | > 0.05 µM |
| O=C(Nc1cc2cc(-c3cn[nH]c3)ccc2cn1)c1ccccc1 [Example 17, N-[6-(1H-pyrazol-4-yl)isoquinolin-3-yl]benzamide] | > 0.03 µM |
| COc1ccc(CCC(=O)Nc2cc3cc(-c4cn[nH]c4)ccc3cn2)cc1 [Example 20, 3-(4-methoxyphenyl)-N-[6-(1H-pyrazol-4-yl)isoquinolin-3-yl]propanamide] | 0.044 µM |
| Cc1ccc2c(c1)CCC2C(=O)Nc1cc2cc(-c3cn[nH]c3)ccc2cn1 (stereo not shown) [Example 21, 5-methyl-N-[6-(1H-pyrazol-4-yl)isoquinolin-3-yl]indane-1-carboxamide] | > 0.05 µM |
| COc1ccc2c(c1OC)CC[C@@H]2C(=O)Nc1cc2cc(-c3cn[nH]c3)ccc2cn1 [Example 22, (S)-4,5-dimethoxy-N-[6-(1H-pyrazol-4-yl)isoquinolin-3-yl]indane-1-carboxamide] | > 0.05 µM |

The next lines start with the values.

| Ki | Structure (SMILES) |
| --- | --- |
| 0.016 µM | O=C(N[C@@H]1COC[C@H]1O)c1cccc2cnc(N[C@H]3CC[C@H](O)CC3)nc12 (relative stereo) [Example 139, 2-[(trans-4-hydroxycyclohexyl)amino]-N-[(trans)-4-hydroxytetrahydrofuran-3-yl]quinazoline-8-carboxamide] |
| 0.029 µM | CN([C@H]1CC[C@H](Nc2ncc3cccc(C(=O)N[C@@H]4COC[C@H]4O)c3n2)CC1)S(C)(=O)=O (relative stereo) [Example 141, N-[(trans)-4-hydroxytetrahydrofuran-3-yl]-2-({trans-4-[methyl(methylsulfonyl)amino]cyclohexyl}amino)quinazoline-8-carboxamide] |
| 0.0008 µM | COc1ccc(CC(=O)Nc2cc3cc(-c4cnn(C)c4)ccc3cn2)cc1 [Example 4, 2-(4-methoxyphenyl)-N-[6-(1-methyl-1H-pyrazol-4-yl)isoquinolin-3-yl]acetamide] |
| 0.039 µM | O=C(Cc1ccccc1)Nc1cc2cc(-c3cn[nH]c3)ccc2cn1 [Example 6, 2-phenyl-N-[6-(1H-pyrazol-4-yl)isoquinolin-3-yl]acetamide] |
| 0.02 µM | O=C(CC1CCOCC1)Nc1cc2cc(-c3cn[nH]c3)ccc2cn1 [Example 7, N-[6-(1H-pyrazol-4-yl)isoquinolin-3-yl]-2-(tetrahydro-2H-pyran-4-yl)acetamide] |
| 0.017 µM | O=C(CNC(=O)c1ccccc1)Nc1cc2cc(-c3cn[nH]c3)ccc2cn1 [Example 9, N-(2-oxo-2-{[6-(1H-pyrazol-4-yl)isoquinolin-3-yl]amino)ethyl)benzamide] |
| 0.026 µM | CC(C)CC(=O)Nc1cc2cc(-c3cn[nH]c3)ccc2cn1 [Example 11, 3-methyl-N-[6-(1H-pyrazol-4-yl)isoquinolin-3-yl]butanamide] |
| 0.029 µM | O=C(CCc1cc(Cl)no1)Nc1cc2cc(-c3cn[nH]c3)ccc2cn1 [Example 12, 3-(3-chloroisoxazol-5-yl)-N-[6-(1H-pyrazol-4-yl)isoquinolin-3-yl]propanamide] |
| 0.036 µM | O=C(CC1CCS(=O)(=O)C1)Nc1cc2cc(-c3cn[nH]c3)ccc2cn1 (stereo not shown) [Example 13, 2-(1,1-dioxidotetrahydro-3-thienyl)-N-[6-(1H-pyrazol-4-yl)isoquinolin-3-yl]acetamide] |
| 0.024 µM | CC(=O)N1CCC(C(=O)Nc2cc3cc(-c4cn[nH]c4)ccc3cn2)CC1 [Example 15, 1-acetyl-N-[6-(1H-pyrazol-4-yl)isoquinolin-3-yl]piperidine-4-carboxamide] |
| 0.031 µM | CC(C)C(=O)Nc1cc2cc(-c3cn[nH]c3)ccc2cn1 [Example 16, 2-methyl-N-[6-(1H-pyrazol-4-yl)isoquinolin-3-yl]propanamide] |
| 0.032 µM | O=C(CCc1cn2cccnc2n1)Nc1cc2cc(-c3cn[nH]c3)ccc2cn1 [Example 18, 3-imidazo[1,2-a]pyrimidin-2-yl-N-[6-(1H-pyrazol-4-yl)isoquinolin-3-yl]propanamide] |
| 0.013 µM | Cc1cc(C(=O)NCC(=O)Nc2cc3cc(-c4cn[nH]c4)ccc3cn2)no1 [Example 19, 5-methyl-N-(2-oxo-2-{[6-(1H-pyrazol-4-yl)isoquinolin-3-yl]amino}ethyl)isoxazole-3-carboxamide] |
| 0.002 µM | COc1ccc2c(c1OC)CC[C@H]2C(=O)Nc1cc2cc(-c3cn[nH]c3)ccc2cn1 [Example 23, (R)-4,5-dimethoxy-N-[6-(1H-pyrazol-4-yl)isoquinolin-3-yl]indane-1-carboxamide] |
| 0.025 µM | O=C(Cc1ccc(Oc2ccnc3ccsc23)cc1)Nc1cc2cc(-c3cn[nH]c3)ccc2cn1 [Example 24, N-[6-(1H-pyrazol-4-yl)isoquinolin-3-yl]-2-[4-(thieno[3,2-b]pyridin-7-yloxy)phenyl]acetamide] |
| 0.014 µM | O=C(CN1Cc2ccccc2C1=O)Nc1cc2cc(-c3cn[nH]c3)ccc2cn1 [Example 25, 2-(1-oxo-1,3-dihydro-2H-isoindol-2-yl)-N-[6-(1H-pyrazol-4-yl)isoquinolin-3-yl]acetamide] |
| 0.007 µM | O=C(COc1ccc2ccccc2c1)Nc1cc2cc(-c3cn[nH]c3)ccc2cn1 [Example 26, 2-(2-naphthyloxy)-N-[6-(1H-pyrazol-4-yl)isoquinolln-3-yl]acetamide] |
| 0.004 µM | COCCC(=O)Nc1cc2cc(-c3cn[nH]c3)ccc2cn1 [Example 27, 3-methoxy-N-[6-(1H-pyrazol-4-yl)isoquinolin-3-yl]propanamide] |
| 0.032 µM | COC1CCC(C(=O)Nc2cc3cc(-c4cn[nH]c4)ccc3cn2)CC1 (stereo not shown) [Example 28, 4-methoxy-N-[6-(1H-pyrazol-4-yl)isoquinolin-3-yl]cyclohexanecarboxamide] |
